According to US8916711B2, “Imidazothiazole-chalcone derivatives as potential anticancer agents and process for the preparation thereof” (Council of Scientific and Industrial Research, priority 2009, dated 2014):
pIC50: −log10 of the molar value. Read-outs that look alike come from different tables or passages of the source.

Key:
Type in all cases: cell-based
CCRF-CEM = assay: NCI in vitro cytotoxicity (SRB, 48 h), Leukemia panel; details: Homo sapiens, 48 h exposure
MOLT-4 = assay: as above; details: Homo sapiens; MOLT-4, Leukemia; 48 h exposure
HL-60(TB) = assay: as above; details: Homo sapiens, 48 h exposure
Experimental: (§1) The imidazothiazole-chalcone hybrids 7a, 7e, 7f, 8f and 19e have been tested against sixty human tumour cell lines derived from nine cancer types (leukemia, non-small cell lung cancer, colon cancer, CNS cancer, melanoma, ovarian cancer, renal cancer, prostate cancer and breast cancer) as per NCI protocol. For each compound, dose response curves for individual cell lines have been measured at a minimum of five concentrations at 10 fold dilutions. A protocol of 48 h continuous drug exposure has been used, and a sulforhodamine B (SRB) protein assay was used to estimate cell viability or growth. The concentration for 50% cell growth inhibition (GI50), total cell growth inhibition (TGI, 0% growth) and 50% cell death (LC50, […]) compared with the control has been calculated (Table-1).

SR = assay: as above; details: Homo sapiens, 48 h exposure
Experimental: as §1

A549/ATCC = assay: NCI in vitro cytotoxicity (SRB, 48 h), Non-small cell lung panel; details: Homo sapiens, 48 h exposure
NCI-H322M = assay: as above; details: Homo sapiens, 48 h exposure
NCI-H522 = assay: as above; details: Homo sapiens, 48 h exposure
HCC-2998 = assay: NCI in vitro cytotoxicity (SRB, 48 h), Colon panel; details: Homo sapiens; HCC-2998, Colon; 48 h exposure
HCT-116 = assay: NCI in vitro cytotoxicity (SRB, 48 h), Colon panel; details: Homo sapiens; HCT-116, Colon; 48 h exposure
HT29 = assay: NCI in vitro cytotoxicity (SRB, 48 h), Colon panel; details: Homo sapiens, HT-29, 48 h exposure
KM12 = assay: NCI in vitro cytotoxicity (SRB, 48 h), Colon panel; details: Homo sapiens, 48 h exposure
SF-268 = assay: NCI in vitro cytotoxicity (SRB, 48 h), CNS panel; details: Homo sapiens; SF-268, CNS; 48 h exposure
SF-295 = assay: NCI in vitro cytotoxicity (SRB, 48 h), CNS panel; details: Homo sapiens; SF-295, CNS; 48 h exposure
SNB-19 = assay: NCI in vitro cytotoxicity (SRB, 48 h), CNS panel; details: Homo sapiens; SNB-19, CNS; 48 h exposure
SNB-75 = assay: NCI in vitro cytotoxicity (SRB, 48 h), CNS panel; details: Homo sapiens; SNB-75, CNS; 48 h exposure
U251 = assay: NCI in vitro cytotoxicity (SRB, 48 h), CNS panel; details: Homo sapiens, U-251, 48 h exposure
OVCAR-3 = assay: NCI in vitro cytotoxicity (SRB, 48 h), Ovarian panel; details: Homo sapiens; OVCAR-3, Ovarian; 48 h exposure
OVCAR-4 = assay: as above; details: Homo sapiens; OVCAR-4, Ovarian; 48 h exposure
OVCAR-8 = assay: as above; details: Homo sapiens; OVCAR-8, Ovarian; 48 h exposure
NCI/ADR-RES = assay: as above; details: Homo sapiens, 48 h exposure
SN12C = assay: NCI in vitro cytotoxicity (SRB, 48 h), Renal panel; details: Homo sapiens, 48 h exposure
TK-10 = assay: NCI in vitro cytotoxicity (SRB, 48 h), Renal panel; details: Homo sapiens; TK-10, Renal; 48 h exposure
UO-31 = assay: NCI in vitro cytotoxicity (SRB, 48 h), Renal panel; details: Homo sapiens; UO-31, Renal; 48 h exposure
HS 578T = assay: NCI in vitro cytotoxicity (SRB, 48 h), Breast panel; details: Homo sapiens, 48 h exposure
T-47D = assay: as above; details: Homo sapiens, T47D, 48 h exposure
MDA-MB-468 = assay: as above; details: Homo sapiens; MDA-MB-468, Breast; 48 h exposure
LOX IMVI = assay: NCI in vitro cytotoxicity (SRB, 48 h), Melanoma panel; details: Homo sapiens, 48 h exposure
M14 = assay: as above; details: Homo sapiens, 48 h exposure
SK-MEL-5 = assay: as above; details: Homo sapiens; SK-MEL-5, Melanoma; 48 h exposure
Leukemia cell lines = assay: NCI in vitro cytotoxicity, whole panel; details: Homo sapiens
Colon cancer cell lines = assay: NCI in vitro cytotoxicity, whole panel; details: Homo sapiens
Melanoma cell lines = assay: NCI in vitro cytotoxicity, whole panel; details: Homo sapiens
Renal cancer cell lines = assay: NCI in vitro cytotoxicity, whole panel; details: Homo sapiens
[1] = test system: Prostate cancer cell lines; assay: NCI in vitro cytotoxicity, whole panel; details: Homo sapiens
Breast cancer cell lines = assay: NCI in vitro cytotoxicity, whole panel; details: Homo sapiens

COc1cc(C(=O)/C=C/c2c(-c3ccc(F)cc3)nc3sc(C)cn23)cc(OC)c1OC [Compound 19e, (E)-3-(6-(4-fluorophenyl)-2-methylimidazo[2,1-b]thiazol-5-yl)-1-(3,4,5-trimethoxyphenyl)prop-2-en-1-one]
GI50 (CCRF-CEM): 7.19 µM | GI50 (MOLT-4): 1.62 µM | GI50 (HL-60(TB)): 2.8 µM | GI50 (SR): 0.8 µM | GI50 (A549/ATCC): 9.34 µM | GI50 (NCI-H322M): 8.65 µM | GI50 (NCI-H522): 2.96 µM | GI50 (HCC-2998): 9.93 µM | GI50 (HCT-116): 2.92 µM | GI50 (HT29): 6.96 µM | GI50 (KM12): 3.63 µM | GI50 (SF-268): 15.2 µM | GI50 (SF-295): 2.33 µM | GI50 (SNB-19): 87.8 µM | GI50 (SNB-75): 50.1 µM | GI50 (U251): 4.07 µM | GI50 (OVCAR-3): 3.66 µM | GI50 (OVCAR-4): 2.28 µM | GI50 (OVCAR-8): 4.94 µM | GI50 (NCI/ADR-RES): 2.63 µM | GI50 (SN12C): 9.01 µM | GI50 (TK-10): 28 µM | GI50 (UO-31): 2.95 µM | GI50 (HS 578T): 8.29 µM | GI50 (T-47D): 2.93 µM | GI50 (MDA-MB-468): 2.38 µM | GI50 (LOX IMVI): 2.5 µM | GI50 (M14): 5.12 µM | GI50 (SK-MEL-5): 0.51 µM | GI50 (Leukemia cell lines; Leukemia, average of six to eight cell lines, read-out: Log10 GI50 (converted)): 2.69 µM | CC50 (Leukemia cell lines; Leukemia, average of six to eight cell lines, read-out: Log10 LC50 (converted)): ≥ 100 µM | GI50 (Leukemia cell lines; exposure period of at least 48 hrs, read-out: GI50, range over leukemia cell lines): 0.8 to 7.19 µM | GI50 (Colon cancer cell lines; Colon, average of six to eight cell lines, read-out: Log10 GI50 (converted)): 5.01 µM | CC50 (Colon cancer cell lines; Colon, average of six to eight cell lines, read-out: Log10 LC50 (converted)): ≥ 100 µM | GI50 (Colon cancer cell lines; exposure period of at least 48 hrs, read-out: GI50, range over colon cell lines): 2.92 to 9.93 µM | GI50 (Melanoma cell lines; Melanoma, average of six to eight cell lines, read-out: Log10 GI50 (converted)): 3.02 µM | CC50 (Melanoma cell lines; Melanoma, average of six to eight cell lines, read-out: Log10 LC50 (converted)): ≥ 100 µM | GI50 (Melanoma cell lines; exposure period of at least 48 hrs, read-out: GI50, range over melanoma cell lines): 0.51 to 7.07 µM | GI50 (Renal cancer cell lines; Renal, average of six to eight cell lines, read-out: Log10 GI50 (converted)): 6.31 µM | CC50 (Renal cancer cell lines; Renal, average of six to eight cell lines, read-out: Log10 LC50 (converted)): ≥ 100 µM | GI50 (Renal cancer cell lines; exposure period of at least 48 hrs, read-out: GI50, range over renal cell lines): 1.78 to 28 µM | GI50 ([1]; Prostate cell, exposure period of at least 48 hrs, read-out: GI50, range over prostate cell lines): 2.41 to 7.52 µM | GI50 ([1]; Prostate, average of the panel's cell lines, read-out: Log10 GI50 (converted)): 4.27 µM | LC50 ([1]; Prostate, average of the panel's cell lines, read-out: Log10 LC50 (converted)): ≥ 100 µM | GI50 (Breast cancer cell lines; Breast, average of six to eight cell lines, read-out: Log10 GI50 (converted)): 3.63 µM | CC50 (Breast cancer cell lines; Breast, average of six to eight cell lines, read-out: Log10 LC50 (converted)): ≥ 100 µM | pIC50 (Breast cancer cell lines; exposure period of at least 48 hrs, read-out: IC50, range over breast cell lines): 5.08 to 5.74
